The results in this text go back to patent publication US12600716B2 (Gannex Pharma Co., Ltd., priority 2020, dated 2026).

Like-named read-outs stand apart in the source and are kept apart here. Bounds are passed on as bounds.

Usually AUC(0-t) stands for exposure summed from dosing to a finite time, without extrapolation to infinity. Usually Cmax stands for the highest concentration seen after dosing. As usually defined, the Tmax is the time at which the peak concentration occurs.

The subject of series [1] is STZ+DEN+HFD induced NASH model. Briefly: STZ+DEN+HFD induced NASH model in mice. It counts as in vivo, male C57BL/6 mice. The procedure: Therapeutic efficacy of FXR compounds was evaluated in STZ+DEN+HFD induced NASH model in male C57BL/6 mice. Briefly, newborn male C57BL/6 mice were injected with streptozocin (STZ) at Week 2 to introduce diabetes and diethylnitrosamine (DEN) at Week 4 to promote liver fibrosis. Mice receiving neither STZ nor DEN were used as negative control (Group 1, n=12) and were fed with normal diet. At Week 6, 60 diabetic mice were selected (blood glucose>12 mmol/L after 6 h of fasting) and were fed with high fat diet (HFD, diet that contains 60 kcal % fat). After one week on HFD, animals were randomly assigned into 5 groups based on body weight: Group 2 (n=12), disease model group, no compound treatment; Group 3 (n=10), positive control group, treated with OCA (30 mg/kg); Group 4 (n=12), treated with Compound 1 (3 mg/kg); Group 5 (n=12), treated with Compound 1 (10 mg/kg); Group 6 (n=12), treated with Compound 1 (30 mg/kg). OCA and Compounds 1 were PO QD, for 7 weeks. On the day after last dose, all animals were euthanized and liver tissues were fixed with formalin for pathological evaluation.

Series [2] relates to DEN+HFD+CHOL induced NASH model. Briefly: DEN+HFD+CHOL induced NASH model in rats. It counts as in vivo, male SD rats. The procedure: Therapeutic efficacy of FXR compounds was evaluated in DEN+HFD+CHOL induced NASH model in male SD rats. Newborn male rats received DEN injection at Week 2 after birth to generate NASH model. Negative control animals (Group 1, n=10) received no DEN injection. At Week 4, 50 rats that received DEN injections started HFD+CHOL diet (60 kcal % Fat+1.25% Cholesterol+0.5% cholate) for 8 weeks, while negative control animals were still on normal diet. At Week 5, DEN treated rats were randomly assigned into 5 groups (Group 2-6) based on body weight. Disease Group (Group 2, n=10), received no treatment; OCA group (Group 3, n=10) received OCA at 30 mg/kg. Group 4-6 (n=10 each) received Compound 1 at low (3 mg/kg), […], and […]. OCA and Compound 1 were given PO QD, for 7 weeks. On the day after last dose, all animals were euthanized and liver tissues were fixed with formalin for pathological evaluation.

A short description of series [3]: Mouse pharmacokinetic studies (IV and PO). Format: in vivo, Male CD-1 mice. Conditions: for PO F: PO 10 mg/kg vs IV 2.0 mg/kg; for Vd / AUC(0-t) / clearance / half-life / Cmax / Tmax: male, CD-1, plasma; for clearance: read-out: IV Cl; for half-life: read-out: IV T½ (converted). On the procedure:
Mouse Pharmacokinetic Studies
Typical PK study procedure. For i.v. PK studies, a group of three fasted Male CD-1 mice were dosed with the compound (2.0 mg/kg, 0.50 mg/mL in 5% solutol in saline, clear solution), and 0.02 mL blood was collected at 0.0830, 0.250, 0.500, 1.00, 2.00, 4.00, 8.00, 24.0 h. For PO PK studies, a group of three fasted Male CD-1 mice were dosed with the compound (10 mg/kg, 1 mg/mL in 5% solutol in saline, clear solution), and 0.02 mL blood was collected at 0.250, 0.500, 1.00, 2.00, 4.00, 6.00, 8.00, 24.0 h. The blood was collected into EP tubes (containing EDTA K20.85-1.15 mg) and centrifuged at 3,000 g or 3,200 g at 4° C. for 10 min) and plasma was isolated and divided into two vials. One was used for bioanalysis and one was kept as backup. The samples were kept at −60° C. or below, until being analyzed by LC MS/MS. The samples were analyzed with AB SCIEX INSTRUMENTS LC-MS/MS AU-Triple Quad 6500 Plus and data were processed with Phoenix WinNonlin 6.3 (IV-noncompartmental model and PO-noncompartmental model).

In the next series the target is T1, human FXR protein (Homo sapiens, UniProt Q96RI1).
T1 construct: purchased Invitrogen
In words: FXR agonist binding ability: time-resolved fluorescence (LanthaScreen) FXR/coactivator assay. Format: biochemical. Conditions: GST-labeled human FXR, fluorescein-labeled coactivator, TR-FRET. A digest of the protocol:
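GST-tagged human FXR (20 nM final) with fluorescein-labeled SRC2-2 coactivator and GST antibody was exposed to 10-point 3-fold compound dilutions in buffer G, 1 h at room temperature in the dark. TR-FRET was read at 520/495 nm, and EC50 was calculated for activation of the coactivator interaction.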
(TR-FRET usually uses a lanthanide donor and a delayed reading to cut background.)

In another series the target is T2, hFXR-LBD-GAL4 (Homo sapiens, UniProt Q96RI1).
T2 construct: GAL4 (fusion partner); host or cells: HEK293T
T2 sequence (Q96RI1 262-486 limits assumed): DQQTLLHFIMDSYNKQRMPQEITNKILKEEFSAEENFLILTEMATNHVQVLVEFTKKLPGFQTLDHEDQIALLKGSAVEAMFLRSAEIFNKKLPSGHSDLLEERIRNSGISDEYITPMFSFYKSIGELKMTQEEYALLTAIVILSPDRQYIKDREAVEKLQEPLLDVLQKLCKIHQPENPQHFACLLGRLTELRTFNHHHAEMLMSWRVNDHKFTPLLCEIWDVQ
In words: FXR agonist transactivation ability: luciferase reporter gene in HEK293T. Format: cell-based. Conditions: read-out: Cell activity.

[4] abbreviates: IV 2.0 mg/kg, read-out: IV AUC 0-t.
The mark [5] stands for this setting: PO 10 mg/kg, read-out: PO AUC 0-t.

Turning to `CC[C@H]1[C@@H](O)[C@@H]2[C@H](CC[C@]3(C)[C@@H]([C@H](C)CCC(=O)O)CC[C@@H]23)[C@@]2(C)CC[C@@H](O)C[C@@H]12` [OCA, reference compound], the NAS score result in series [1] (30 mg/kg PO QD 7 weeks) was “decrease in NAS score”; in series [2] (30 mg/kg PO QD 7 weeks, p<0.001), “decrease in NAS score”.
Consider `O=C(O)c1ccc(Oc2ccc3cc(OCc4c(-c5c(Cl)cccc5Cl)noc4C4CC4)ccc3c2)nc1` [Compound 1, 6-((6-((5-cyclopropyl-3-(2,6-dichlorophenyl)isoxazol-4-yl)methoxy)naphthalen-2-yl)oxy)nicotinic acid], for which, in series [3], the “PO F” value was determined as 33%. In series [3] (IV 2.0 mg/kg), the Vd was found to be 1.75 L/kg, the clearance was determined as 47.4 mL/min/kg and the half-life is 51 min. The AUC(0-t) in series [3] (setting [4]) was found to be 705 ng·h/mL. In series [3] (PO 10 mg/kg), the Cmax was 641 ng/mL and the Tmax was 49.8 min. Besides, the AUC(0-t) in series [3] (setting [5]) is 1160 ng·h/mL. Besides, in series [1] (30 mg/kg PO QD 7 weeks), the NAS score result is reported as “significantly decreases”, the “decreased NAS score as compared with the model group” value is 46.2% and the lowered cirrhosis percentage was determined as 15.2%. For the same molecule, the “hepatocyte steatosis (FIG. 1)” value in series [1] (3, 10 and 30 mg/kg PO QD 7 weeks, p<0.001) was “dose dependent decrease”. For the same molecule, the “progress of liver fibrosis (FIG. 2)” value in series [1] (low (3 mg/kg) and high doses (30 mg/kg) PO QD 7 weeks) was “significantly inhibited”. Besides, in series [2] (30 mg/kg PO QD 7 weeks), the “NAS score lowered as compared to the model group” value came to 42.9% and the lowered cirrhosis percentage is 28.0%. Also, the “NAS score (FIG. 3)” value in series [2] (3, 10 and 30 mg/kg PO QD 7 weeks, all p<0.001) is “dose dependent decrease”. Besides, in series [2] (3, 10 and 30 mg/kg PO QD 7 weeks, p<0.01), the “progress of liver fibrosis (FIG. 4)” value was “significantly inhibited”.
On human FXR protein, `Cc1cc(C(=O)O)cnc1Oc1cccc2cc(OCc3c(-c4c(Cl)cccc4Cl)noc3C3CC3)ccc12` [Compound 28, 6-((6-((5-cyclopropyl-3-(2,6-dichlorophenyl)isoxazol-4-yl)methoxy)naphthalen-1-yl)oxy)-5-methylnicotinic acid] showed an EC50 of less than 0.05 µM. Further, on hFXR-LBD-GAL4, the EC50 is less than 0.2 µM. For the same molecule, the “PO F” value in series [3] came out at 29.9%. Besides, in series [3] (IV 2.0 mg/kg), the Vd is 0.663 L/kg, the clearance stood at 28.4 mL/min/kg and the half-life was 58.6 min. For the same molecule, in series [3] (setting [4]), the AUC(0-t) amounted to 1180 ng·h/mL. Besides, in series [3] (PO 10 mg/kg), the Cmax came to 2130 ng/mL and the Tmax was 30 min. In addition, the AUC(0-t) in series [3] (setting [5]) worked out at 1740 ng·h/mL.
